This is an account of results in publication PMC7932537, “Quantitative profiling of protease specificity” (PLoS Computational Biology, 2021).

In one experiment the test system is MMP-9. Put plainly: Substrate phage display with NGS: relative probability (RP) of P3-P1' tetramer clusters. The experiment is classed as biochemical, human. The note with it: for normalized RP - MMP9: normalized RP of matching tetramer; for corresponding MMP9 relative probability (RP): MMP2 tetramers from unique substrates, RP of same tetramer for MMP9.
The test system of the next experiment is MMP-2. The experiment is described as above. The experiment is classed as biochemical, human. The note with it: for relative probability (RP) of matching tetramer: P3-P1' tetramer matching the MS detected MMP2 cleavage sequence, RP_above_4.5; for normalized RP - MMP2: normalized RP of matching tetramer; for MMP2 relative probability (RP): MMP2 tetramers from unique substrates, unrounded values.

[1] abbreviates: MMP9, RP of the P3-P1' tetramer contained in the hexamer substrate (substrate phage display, NGS).
Setting [2] is: RP of the P3-P1' tetramer cluster contained in the hexamer, 200 nM MMP-2, 2 h, 37°C, two rounds of selection.
Setting [3] is: RP of the P3-P1' tetramer, MMP9 substrate phage display/NGS, tetramers of physiologic MEROPS substrates common to MMP2 and MMP9.
Setting [4] is: RP of the P3-P1' tetramer, MMP2 substrate phage display/NGS, tetramers of physiologic MEROPS substrates common to MMP2 and MMP9.
Where [5] appears, read: MMP9, RP of matching P3-P1' tetramer, common set of MMP2-9 selectome.
Where [6] appears, read: MMP2, RP of matching P3-P1' tetramer, common set of MMP2-9 selectome, RP above KL threshold.
Setting [7] is: RP of matching tetramer, unique part of MMP2 selectome.
Setting [8] is: RP of matching tetramer, unique part of MMP2 selectome, RP above KL threshold.
Setting [9] is: RP according to MMP9, P3-P1' tetramer of unique physiologic MMP9 substrates from MEROPS.
The mark [10] stands for this setting: RP according to MMP2, P3-P1' tetramer of unique physiologic MMP2 substrates from MEROPS.

With HPVSMV, the “relative probability (RP)” value in the experiment with MMP-9 (setting [1]) was determined as 41.2029; in the experiment on MMP-2 (setting [2]) it was 30.0644.
On to HQKL, for which, in the experiment on MMP-9 (setting [3]), the “relative probability (RP) (acc.to MMP9)” value came out at 0.06. In the experiment with MMP-2 (setting [4]), the “relative probability (RP) (acc.to MMP2)” value amounted to 2.29.
For the substance IAFL, the “relative probability (RP) (acc.to MMP9)” value in the experiment with MMP-9 (setting [5]) was 10.97. Moreover, the “relative probability (RP) (acc.to MMP2)” value with MMP-2 (setting [6]) is 22.55. Also, the “relative probability (RP) of matching tetramer” value in the experiment on MMP-2 worked out at 22.55.
As to IANL, the “relative probability (RP) (acc.to MMP9)” value with MMP-9 (setting [5]) came to 21.07; with MMP-9 (RP of matching tetramer, common MMP2-9 selectome, RP above KL threshold), 21.07. In addition, the “relative probability (RP)” value in the experiment with MMP-9 (MMP9, RP of the P3-P1' tetramer matching the MS detected cleavage, RP above 4.7, substrate phage display with NGS) worked out at 21.07. In addition, the avg_RP in the experiment with MMP-2 (MMP2 - no binning, average relative probability (RP) of the P3-P1' tetramer, redundant tetramers have been averaged out) is reported as 33.8805. Also, the “relative probability (RP) (acc.to MMP2)” value in the experiment on MMP-2 (setting [6]) amounted to 33.88; in the experiment on MMP-2 (RP of matching tetramer, common MMP2-9 selectome), 33.88. Moreover, the “relative probability (RP) of matching tetramer” value in the experiment with MMP-2 is 33.88.
With IDNL, the “relative probability (RP) (acc.to MMP9)” value with MMP-9 (setting [7]) was 0.5. In addition, the “normalized RP - MMP9” value with MMP-9 (unique part of MMP2 selectome) is 0.009546. In addition, the “relative probability (RP) of matching tetramer” value with MMP-2 is listed as 4.88. Also, in the experiment with MMP-2 (setting [8]), the “relative probability (RP) (acc.to MMP2)” value stood at 4.88. The “normalized RP - MMP2” value with MMP-2 (unique part of MMP2 selectome) is 0.1336.
Turning to IGGL [P3-P1' tetramer cluster], the “relative probability (RP) (acc.to MMP9)” value with MMP-9 (setting [7]) is on record as 4.4. In the experiment with MMP-9 (unique part of MMP2 selectome), the “normalized RP - MMP9” value amounted to 0.084. In the experiment on MMP-9 (tetramer projected onto MMP-9 cleavage sites determined by Prudova et al. (2010)), the “relative probability (RP)” value turned out to be 4.4. The “relative probability (RP) of matching tetramer” value in the experiment on MMP-2 is 26.48. The “relative probability (RP) (acc.to MMP2)” value in the experiment on MMP-2 (setting [8]) is on record as 26.48. In the experiment with MMP-2 (unique part of MMP2 selectome), the “normalized RP - MMP2” value was determined as 0.7251.
Take IGLM: the “corresponding MMP9 relative probability (RP)” value in the experiment on MMP-9 came out at 2.913. Also, in the experiment on MMP-9 (setting [9]), the “Relative probability (RP) rank” value came to 7888 and the “relative probability (RP)” value was determined as 2.91. In addition, the “relative probability (RP) (acc.to MMP9)” value in the experiment on MMP-9 (setting [3]) stood at 2.91. For the same substance, the “MMP2 relative probability (RP)” value in the experiment on MMP-2 is 19.5116. In the experiment with MMP-2 (setting [10]), the “Relative probability (RP) rank” value turned out to be 1895 and the “relative probability (RP)” value was found to be 19.51. Also, in the experiment with MMP-2 (setting [4]), the “relative probability (RP) (acc.to MMP2)” value turned out to be 19.51.
As to IGNM, the “relative probability (RP) (acc.to MMP9)” value in the experiment on MMP-9 (setting [5]) worked out at 9.58. In the experiment with MMP-2 (setting [6]), the “relative probability (RP) (acc.to MMP2)” value came out at 29.21. Moreover, in the experiment on MMP-2, the “relative probability (RP) of matching tetramer” value was determined as 29.21.
As for IGRF, the “corresponding MMP9 relative probability (RP)” value with MMP-9 is 0.4689. Further, the “MMP2 relative probability (RP)” value with MMP-2 came to 13.8957. Also, in the experiment on MMP-2 (setting [10]), the “Relative probability (RP) rank” value is 3460 and the “relative probability (RP)” value was 13.9.
Consider IGTY, for which the “relative probability (RP) (acc.to MMP9)” value in the experiment with MMP-9 (setting [7]) amounted to 0.06. Further, the “normalized RP - MMP9” value in the experiment with MMP-9 (unique part of MMP2 selectome) was 0.001145. Besides, the “relative probability (RP) of matching tetramer” value in the experiment with MMP-2 was 5.18. The “relative probability (RP) (acc.to MMP2)” value with MMP-2 (setting [8]) is 5.18. Also, the “normalized RP - MMP2” value in the experiment on MMP-2 (unique part of MMP2 selectome) was found to be 0.1418.
For the substance IHSL, the “relative probability (RP) (acc.to MMP9)” value in the experiment on MMP-9 (setting [5]) was found to be 4.86. Also, the “relative probability (RP) (acc.to MMP2)” value in the experiment on MMP-2 (setting [6]) turned out to be 6.87. In the experiment on MMP-2, the “relative probability (RP) of matching tetramer” value is 6.87.
As for INPQGL, the “relative probability (RP)” value in the experiment on MMP-9 (setting [1]) is on record as 47.8621; with MMP-2 (setting [2]) it was 33.5241.
As for IPLASL, the “relative probability (RP)” value in the experiment on MMP-9 (setting [1]) stood at 34.6637; in the experiment with MMP-2 (setting [2]), 31.1996.
With IQSI, the “relative probability (RP) (acc.to MMP9)” value in the experiment with MMP-9 (setting [7]) is on record as 0.41. The “normalized RP - MMP9” value with MMP-9 (unique part of MMP2 selectome) was 0.007827. Moreover, in the experiment with MMP-2, the “relative probability (RP) of matching tetramer” value is reported as 15.56. In addition, the “relative probability (RP) (acc.to MMP2)” value with MMP-2 (setting [8]) is on record as 15.56. Also, the “normalized RP - MMP2” value with MMP-2 (unique part of MMP2 selectome) is 0.4261.
Take IRPKHF: the “relative probability (RP)” value amounted to 30.1694 with MMP-9 (setting [1]) and 19.1404 in the experiment on MMP-2 (setting [2]).
Regarding ITGL, in the experiment with MMP-9, the “corresponding MMP9 relative probability (RP)” value is listed as 0.3587. Further, in the experiment with MMP-2, the “MMP2 relative probability (RP)” value worked out at 4.832. Moreover, in the experiment on MMP-2 (setting [10]), the “Relative probability (RP) rank” value stood at 7648 and the “relative probability (RP)” value is listed as 4.83.
As to KPVNMT, the “relative probability (RP)” value with MMP-9 (setting [1]) worked out at 44.4072; in the experiment with MMP-2 (setting [2]), 30.0312.
Take KSEL: the “corresponding MMP9 relative probability (RP)” value in the experiment on MMP-9 is recorded as 0.2037. Further, in the experiment on MMP-2, the “MMP2 relative probability (RP)” value is recorded as 10.4091. Further, in the experiment with MMP-2 (setting [10]), the “Relative probability (RP) rank” value is listed as 4754 and the “relative probability (RP)” value was found to be 10.41.
For KSPLRQ, the “relative probability (RP)” value is listed as 29.0862 in the experiment on MMP-9 (setting [1]) and 11.8624 with MMP-2 (setting [2]).
